What all share (format): functional
In test [1] the test system is Spodoptera litura. Description: Insecticidal activity against Spodoptera litura assessed as pupal mortality at 0.5 ug/cm'2 of castor leaf area after 24 hr.
Test [2] relates to Spodoptera litura. Description: Growth regulating activity of Spodoptera litura assessed as pupal time at 0.5 ug/cm'2 of castor leaf area after 24 hr.
For test [3], the system named is Spodoptera litura. Description: Growth regulating activity of Spodoptera litura assessed as total larval time at 0.5 ug/cm'2 of castor leaf area after 24 hr.
Test [4] concerns Spodoptera litura. Description: Growth regulating activity of Spodoptera litura assessed as sixth-instar time at 0.5 ug/cm'2 of castor leaf area after 24 hr.
Test [5] has as its system Spodoptera litura. Description: Growth regulating activity of Spodoptera litura assessed as fifth-instar time at 0.5 ug/cm'2 of castor leaf area after 24 hr.
In test [6] the test system is Spodoptera litura. Description: Growth regulating activity of Spodoptera litura assessed as fourth-instar time at 0.5 ug/cm'2 of castor leaf area after 24 hr.
The test system of test [7] is Spodoptera litura. Description: Growth regulating activity of Spodoptera litura assessed as third-instar time at 0.5 ug/cm'2 of castor leaf area after 24 hr.
Test [8] deals with Spodoptera litura. Description: Antifeedant activity against Spodoptera litura at 1 ug/cm'2 of castor leaf area relative to control.
In test [9] the test system is Spodoptera litura. Description: Antifeedant activity against Spodoptera litura at 5 ug/cm'2 of castor leaf area relative to control.
In test [10] the test system is Spodoptera litura. Description: Antifeedant activity against Spodoptera litura at 0.5 ug/cm'2 of castor leaf area relative to control.

These results are taken from ChEMBL document CHEMBL3044939, “Insect antifeedant and growth regulating activities of quassinoids from Samadera indica” (2001).

Regarding `C/C=C(\C)C(=O)O[C@H]1C[C@@H](OC(C)=O)[C@@]2(C(=O)OC)CO[C@H]3[C@@H](O)[C@@](C)([C@]45O[C@@]4(C)[C@@H]4C[C@H]5O[C@@H]5OC=C[C@@]54O)[C@H]4[C@]1(CO[C@]4(O)C(=O)OC)[C@@H]32` [AZADIRACHTIN A], the Activity in the test on Spodoptera litura [1] amounted to 62.5%; with Spodoptera litura [8], 94.8%; with Spodoptera litura [9], 95.4%; in the test with Spodoptera litura [10] it was 91.6%. Also, the Time with Spodoptera litura [2] was found to be 9.3 days; with Spodoptera litura [3], 16.1 days; in the test on Spodoptera litura [4], 5.4 days; in the test with Spodoptera litura [5], 3.3 days; in the test on Spodoptera litura [6] it was 4.1 days; in the test on Spodoptera litura [7], 3.2 days.
`CC1=CC(=O)[C@@H](O)[C@@]2(C)[C@H]1[C@@H](O)[C@H]1OC(=O)C[C@]3(O)[C@]14CO[C@@]3(C)[C@@H](O)[C@H](O)[C@H]24` [INDAQUASSIN C]: the Activity in the test on Spodoptera litura [1] stood at 10.5%; in the test with Spodoptera litura [8], 48.9%; in the test with Spodoptera litura [9], 62.5%; with Spodoptera litura [10] it was 47.6%. The Time with Spodoptera litura [2] came out at 8.5 days; in the test on Spodoptera litura [3], 14.2 days; in the test on Spodoptera litura [4] it was 4.9 days; in the test on Spodoptera litura [5], 3.4 days; in the test on Spodoptera litura [6] it was 3.8 days; in the test with Spodoptera litura [7] it was 2.3 days.
Consider `CC1=CC(=O)[C@@]2(C)C1=CC(=O)[C@@]13CO[C@]4(C)[C@@H](OC(=O)[C@@H]41)[C@H](O)[C@H]23` [SAMADERINS A], for which the Activity in the test with Spodoptera litura [1] was 7.4%; with Spodoptera litura [8] it was 16.2%; in the test on Spodoptera litura [9], 21.1%; in the test on Spodoptera litura [10], 18.9%. Also, the Time with Spodoptera litura [2] was found to be 8.8 days; in the test on Spodoptera litura [3] it was 15.1 days; with Spodoptera litura [4], 4.8 days; in the test with Spodoptera litura [5], 3.6 days; in the test on Spodoptera litura [6] it was 3.6 days; in the test on Spodoptera litura [7] it was 2.9 days.
Take `CC1=CC(=O)[C@@H](O)[C@@]2(C)[C@H]1CC(=O)[C@@]13CO[C@]4(C)[C@@H](OC(=O)[C@@H]41)[C@H](O)[C@@H]32` [SAMADERINS B]: the Activity came out at 37.5% with Spodoptera litura [1], 25.9% in the test with Spodoptera litura [8], 63.1% with Spodoptera litura [9] and 16.3% with Spodoptera litura [10]. Besides, the Time with Spodoptera litura [2] stood at 9.3 days; in the test on Spodoptera litura [3], 15.6 days; in the test with Spodoptera litura [4] it was 5.1 days; in the test with Spodoptera litura [5] it was 3.4 days; with Spodoptera litura [6], 3.8 days; with Spodoptera litura [7], 3.1 days.
In the case of `CC1=C[C@H](O)[C@@H](O)[C@@]2(C)[C@H]1CC(=O)[C@@]13CO[C@]4(C)[C@@H](OC(=O)[C@@H]41)[C@H](O)[C@@H]32` [SAMADERINS C], the Activity amounted to 54.1% with Spodoptera litura [1], 16.1% with Spodoptera litura [8], 55.3% in the test on Spodoptera litura [9] and 15% in the test with Spodoptera litura [10]. Further, the Time in the test with Spodoptera litura [2] was found to be 9.7 days; with Spodoptera litura [3] it was 15.3 days; in the test with Spodoptera litura [4] it was 4.4 days; in the test with Spodoptera litura [5], 3.8 days; with Spodoptera litura [6] it was 4.4 days; in the test on Spodoptera litura [7], 2.7 days.
